# Experimental data taken from the CheMixHub viscosity set.
# ± gives the uncertainty stated by the source.
# Experiment: xn = mol fraction of the nth substance listed
smiles,measurement,setting,value
CCCCCCCCCCO + Cc1ccccc1,viscosity,"298.15 K, 101 kPa, x2 = 0.0507",10.3 ± 0.054 mPa·s
same,viscosity,"298.15 K, 101 kPa, x2 = 0.1015",9.101 ± 0.049 mPa·s
same,viscosity,"298.15 K, 101 kPa, x2 = 0.1473",8.207 ± 0.045 mPa·s
same,viscosity,"298.15 K, 101 kPa, x2 = 0.2091",7.146 ± 0.04 mPa·s
same,viscosity,"298.15 K, 101 kPa, x2 = 0.2577",6.303 ± 0.036 mPa·s
same,viscosity,"298.15 K, 101 kPa, x2 = 0.3006",5.584 ± 0.033 mPa·s
same,viscosity,"298.15 K, 101 kPa, x2 = 0.3496",4.913 ± 0.029 mPa·s
same,viscosity,"298.15 K, 101 kPa, x2 = 0.4028",4.195 ± 0.025 mPa·s
same,viscosity,"298.15 K, 101 kPa, x2 = 0.4516",3.678 ± 0.022 mPa·s
same,viscosity,"298.15 K, 101 kPa, x2 = 0.4989",3.222 ± 0.02 mPa·s
same,viscosity,"298.15 K, 101 kPa, x2 = 0.5497",2.797 ± 0.017 mPa·s
same,viscosity,"298.15 K, 101 kPa, x2 = 0.6009",2.439 ± 0.015 mPa·s
same,viscosity,"298.15 K, 101 kPa, x2 = 0.6498",2.13 ± 0.013 mPa·s
same,viscosity,"298.15 K, 101 kPa, x2 = 0.7065",1.819 ± 0.012 mPa·s
same,viscosity,"298.15 K, 101 kPa, x2 = 0.7524",1.537 ± 0.01 mPa·s
same,viscosity,"298.15 K, 101 kPa, x2 = 0.8069",1.308 ± 0.009 mPa·s
same,viscosity,"298.15 K, 101 kPa, x2 = 0.8472",1.071 ± 0.007 mPa·s
same,viscosity,"298.15 K, 101 kPa, x2 = 0.9063",0.807 ± 0.006 mPa·s
same,viscosity,"298.15 K, 101 kPa, x2 = 0.953",0.608 ± 0.005 mPa·s
same,viscosity,"308.15 K, 101 kPa, x2 = 0.0507",7.108 ± 0.04 mPa·s
same,viscosity,"308.15 K, 101 kPa, x2 = 0.1015",6.203 ± 0.036 mPa·s
same,viscosity,"308.15 K, 101 kPa, x2 = 0.1473",5.499 ± 0.032 mPa·s
same,viscosity,"308.15 K, 101 kPa, x2 = 0.2091",4.673 ± 0.028 mPa·s
same,viscosity,"308.15 K, 101 kPa, x2 = 0.2577",4.079 ± 0.025 mPa·s
same,viscosity,"308.15 K, 101 kPa, x2 = 0.3006",3.647 ± 0.022 mPa·s
same,viscosity,"308.15 K, 101 kPa, x2 = 0.3496",3.173 ± 0.019 mPa·s
same,viscosity,"308.15 K, 101 kPa, x2 = 0.4028",2.786 ± 0.017 mPa·s
same,viscosity,"308.15 K, 101 kPa, x2 = 0.4516",2.398 ± 0.015 mPa·s
same,viscosity,"308.15 K, 101 kPa, x2 = 0.4989",2.122 ± 0.013 mPa·s
same,viscosity,"308.15 K, 101 kPa, x2 = 0.5497",1.832 ± 0.012 mPa·s
same,viscosity,"308.15 K, 101 kPa, x2 = 0.6009",1.569 ± 0.01 mPa·s
same,viscosity,"308.15 K, 101 kPa, x2 = 0.6498",1.393 ± 0.009 mPa·s
same,viscosity,"308.15 K, 101 kPa, x2 = 0.7065",1.159 ± 0.008 mPa·s
same,viscosity,"308.15 K, 101 kPa, x2 = 0.7524",1.047 ± 0.007 mPa·s
same,viscosity,"308.15 K, 101 kPa, x2 = 0.8069",0.858 ± 0.006 mPa·s
same,viscosity,"308.15 K, 101 kPa, x2 = 0.8472",0.798 ± 0.006 mPa·s
same,viscosity,"308.15 K, 101 kPa, x2 = 0.9063",0.687 ± 0.005 mPa·s
same,viscosity,"308.15 K, 101 kPa, x2 = 0.953",0.585 ± 0.005 mPa·s
CCCCCCCCCCCC[P+](CC)(CC)CC.N#Cc1ccc[n-]1 + OCCN(CCO)CCO,viscosity,"293.15 K, 100 kPa, x1 = 0.035",991 ± 150 mPa·s
same,viscosity,"293.15 K, 100 kPa, x1 = 0.207",876 ± 130 mPa·s
same,viscosity,"293.15 K, 100 kPa, x1 = 0.28",863 ± 130 mPa·s
same,viscosity,"293.15 K, 100 kPa, x1 = 0.473",853 ± 130 mPa·s
same,viscosity,"293.15 K, 100 kPa, x1 = 0.687",836 ± 120 mPa·s
same,viscosity,"293.15 K, 100 kPa, x1 = 0.809",718 ± 110 mPa·s
same,viscosity,"298.15 K, 100 kPa, x1 = 0.091",675 ± 100 mPa·s
CCC#N + CN(C)C=O,viscosity,"303.15 K, 101.33 kPa, x1 = 0.1013",0.6977 ± 0.0048 mPa·s
same,viscosity,"303.15 K, 101.33 kPa, x1 = 0.1952",0.6428 ± 0.0045 mPa·s
same,viscosity,"303.15 K, 101.33 kPa, x1 = 0.3003",0.5983 ± 0.0043 mPa·s
same,viscosity,"303.15 K, 101.33 kPa, x1 = 0.4007",0.5648 ± 0.0042 mPa·s
same,viscosity,"303.15 K, 101.33 kPa, x1 = 0.4949",0.5385 ± 0.0041 mPa·s
same,viscosity,"303.15 K, 101.33 kPa, x1 = 0.5976",0.5113 ± 0.004 mPa·s
same,viscosity,"303.15 K, 101.33 kPa, x1 = 0.6964",0.4839 ± 0.0039 mPa·s
same,viscosity,"303.15 K, 101.33 kPa, x1 = 0.7945",0.4533 ± 0.0037 mPa·s
same,viscosity,"303.15 K, 101.33 kPa, x1 = 0.9",0.4186 ± 0.0036 mPa·s
CCOC(=O)OCC + CCCCCCO,viscosity,"293.15 K, 101 kPa, x1 = 0.0551",4.432 mPa·s
same,viscosity,"293.15 K, 101 kPa, x1 = 0.1001",3.822 mPa·s
same,viscosity,"293.15 K, 101 kPa, x1 = 0.2106",2.778 mPa·s
same,viscosity,"293.15 K, 101 kPa, x1 = 0.3101",2.17 mPa·s
same,viscosity,"293.15 K, 101 kPa, x1 = 0.4052",1.77 mPa·s
same,viscosity,"293.15 K, 101 kPa, x1 = 0.5061",1.454 mPa·s
same,viscosity,"293.15 K, 101 kPa, x1 = 0.6093",1.229 mPa·s
same,viscosity,"293.15 K, 101 kPa, x1 = 0.7555",0.999 mPa·s
same,viscosity,"293.15 K, 101 kPa, x1 = 0.7968",0.958 mPa·s
same,viscosity,"293.15 K, 101 kPa, x1 = 0.8927",0.868 mPa·s
same,viscosity,"293.15 K, 101 kPa, x1 = 0.9522",0.826 mPa·s
same,viscosity,"303.15 K, 101 kPa, x1 = 0.05134",3.305 mPa·s
same,viscosity,"303.15 K, 101 kPa, x1 = 0.1004",2.818 mPa·s
same,viscosity,"303.15 K, 101 kPa, x1 = 0.2102",2.088 mPa·s
same,viscosity,"303.15 K, 101 kPa, x1 = 0.3094",1.667 mPa·s
same,viscosity,"303.15 K, 101 kPa, x1 = 0.4091",1.367 mPa·s
same,viscosity,"303.15 K, 101 kPa, x1 = 0.5094",1.145 mPa·s
same,viscosity,"303.15 K, 101 kPa, x1 = 0.6017",0.998 mPa·s
same,viscosity,"303.15 K, 101 kPa, x1 = 0.7089",0.873 mPa·s
same,viscosity,"303.15 K, 101 kPa, x1 = 0.8045",0.795 mPa·s
same,viscosity,"303.15 K, 101 kPa, x1 = 0.9051",0.734 mPa·s
same,viscosity,"303.15 K, 101 kPa, x1 = 0.9543",0.715 mPa·s
same,viscosity,"313.15 K, 101 kPa, x1 = 0.06803",2.378 mPa·s
same,viscosity,"313.15 K, 101 kPa, x1 = 0.222",1.602 mPa·s
same,viscosity,"313.15 K, 101 kPa, x1 = 0.3216",1.303 mPa·s
same,viscosity,"313.15 K, 101 kPa, x1 = 0.4055",1.125 mPa·s
same,viscosity,"313.15 K, 101 kPa, x1 = 0.5084",0.954 mPa·s
same,viscosity,"313.15 K, 101 kPa, x1 = 0.6037",0.839 mPa·s
same,viscosity,"313.15 K, 101 kPa, x1 = 0.7059",0.748 mPa·s
same,viscosity,"313.15 K, 101 kPa, x1 = 0.8097",0.682 mPa·s
same,viscosity,"313.15 K, 101 kPa, x1 = 0.9065",0.642 mPa·s
same,viscosity,"313.15 K, 101 kPa, x1 = 0.957",0.625 mPa·s
OCCOCCOCCO + C[N+](C)(C)CCO.[Cl-],viscosity,"298.15 K, 101 kPa, x2 = 0.25",72.3 ± 2.9 mPa·s
Cc1ccccc1C + CCCCCC,viscosity,"293.15 K, 101.33 kPa, x2 = 0.29",0.5875 ± 0.012 mPa·s
same,viscosity,"293.15 K, 101.33 kPa, x2 = 0.6",0.4736 ± 0.0095 mPa·s
same,viscosity,"293.15 K, 101.33 kPa, x2 = 0.79",0.3659 ± 0.0073 mPa·s
same,viscosity,"313.15 K, 101.33 kPa, x2 = 0.29",0.4679 ± 0.0094 mPa·s
same,viscosity,"313.15 K, 101.33 kPa, x2 = 0.6",0.3797 ± 0.0076 mPa·s
same,viscosity,"313.15 K, 101.33 kPa, x2 = 0.79",0.3022 ± 0.006 mPa·s
